Here are results for three molecules from US20100113390A1, “OLIGOSACCHARIDES DERIVED FROM FUCOIDAN” (SUNTORY HOLDINGS LIMITED, priority 2007, published 2010).

A word on the inhibition: it is the drop in the measured response relative to a control, in per cent. Low readings indicate little suppression, high ones strong suppression.

The target of assay [1] is T1, porcine pancreatic lipase (Sus scrofa, UniProt P00591).
T1 construct: purchased SIGMA
T1 sequence (P00591 1-450): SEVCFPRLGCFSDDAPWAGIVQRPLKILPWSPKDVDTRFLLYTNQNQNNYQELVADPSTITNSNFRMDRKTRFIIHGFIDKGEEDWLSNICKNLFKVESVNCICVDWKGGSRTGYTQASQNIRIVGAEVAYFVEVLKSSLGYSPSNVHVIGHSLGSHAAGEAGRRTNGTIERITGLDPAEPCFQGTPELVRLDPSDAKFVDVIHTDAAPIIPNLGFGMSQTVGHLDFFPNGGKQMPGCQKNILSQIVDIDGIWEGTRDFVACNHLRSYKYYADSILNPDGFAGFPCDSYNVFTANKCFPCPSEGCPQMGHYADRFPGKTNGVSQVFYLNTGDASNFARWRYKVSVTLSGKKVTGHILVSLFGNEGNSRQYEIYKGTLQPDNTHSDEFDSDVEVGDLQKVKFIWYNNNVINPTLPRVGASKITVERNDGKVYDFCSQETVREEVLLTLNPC
Description: Measurement of lipase inhibitory activity (4-methylumbelliferone oleic acid ester, fluorescence). The format is biochemical. To be noted: at 4 mg/ml final concentration, FIG. 30. The protocol:
1. In a 96-well flat-bottomed plate, GF (I) prepared in Example 3, as well as the GSFaF (VII)-containing fraction and the GSF fraction containing (V) and GSFF (VI) prepared in Example 4 were each adjusted to give a final concentration of 4 mg/ml (25 μl), followed by addition of 50 μl buffer (130 mM Tris-HCl buffer (pH 8.0, containing 150 mM NaCl and 1.36 mM CaCl2)) and 25 μl 4-methylumbelliferone oleic acid ester (SIGMA, final concentration: 100 μM). The plate was allowed to stand for 30 minutes at room temperature. Then, lipase (porcine pancreatic lipase, SIGMA) was added in a volume of 50 μl (final concentration: 100 U/ml) to initiate the reaction. 2. After 30 minutes, 100 μl citrate buffer (pH 4.2) was added to stop the reaction. The fluorescence intensity of 4-methylumbelliferone generated by the reaction (excitation wavelength: 355 nm, fluorescence wavelength: 460 nm) was measured with a fluorescence plate reader (Fluoroskan Asent CF, Labsystems). 3. As a control, water was used in place of the samples. As a blank, water was used in place of the samples and buffer was used in place of lipase. The following equation was used to calculate lipase inhibitory activity. 4. Calculation equation
Lipase inhibitory activity (%)=100−(A−B)/(C−B)×100
A: fluorescence intensity in sample, B: fluorescence intensity in blank, C: fluorescence intensity in control

The target of assay [2] is α-glucosidase. Description: Measurement of α-glucosidase activity (p-nitrophenyl-α-D-glucopyranoside substrate, A405 nm). In kind it is biochemical, yeast. As to conditions: for α-glucosidase inhibitory activity (% inhibition): at 5 mg/ml (samples adjusted to 50 mg/ml H2O), duplicate, FIG. 29. The protocol:
1. 0.1 M sodium phosphate buffer (a mixture of 0.1 M NaH2PO4.2H2O and 0.1 M Na2HPO4.12H2O, adjusted to pH 7.0) was supplemented with 2 g/L bovine serum albumin (a product of Nacalai Tesque, Inc., Japan, F-V, pH 5.2, purity: 96%) and 0.2 g/L NaN3 (a product of Nacalai Tesque, Inc., Japan, reagent grade). As an enzyme solution, α-glucosidase (a product of Wako Pure Chemical Industries, Ltd., Japan, derived from yeast, 100 units/mg) was dissolved in the above buffer at 0.5 units/mg protein/ml (100 μg/20 ml). As a substrate solution, p-nitrophenyl-α-D-glucopyranoside (a product of Nacalai Tesque, Inc., Japan, reagent grade) was dissolved in the above buffer at 5 mM (7.525 mg/5 ml). 2. For use as samples, GF (I) purified in Example 3 was adjusted to 200 mg/ml H2O and diluted two-fold to give 6 dilutions. Using a 96-well microplate, the enzyme solution (45 μL) was added to each of the sample solutions (10 μL) and pre-incubated at 37° C. for 5 minutes. After addition of the substrate solution (45 μL), each sample was measured for absorbance A405 nm (A405 nm at 0 min) and, after incubation at 37° C. for 5 minutes, was then measured for absorbance A405 nm (A405 nm at 5 min). As a control, H2O was added in place of the samples and measured for absorbance. The difference in A405 nm from the control was calculated as % inhibition. Activity measurement was made in quadruplicate. 3. […] As comparative samples, X2 (xylobiose) and glucuronic acid (Sigma-Aldrich) were neutralized with NaOH and adjusted to 50 mg/ml H2O (calculated based on the amount of glucuronic acid). […] After addition of the substrate solution (45 μl), each of the samples was measured for absorbance A405 nm (A405 nm at 0 min) and, after incubation at 37° C. for 5 minutes, was then measured for absorbance A405 nm (A405 nm at 5 min). As a control, H2O was added in place of the samples, and the difference in A405 nm from the control was calculated as % inhibition. […]

`CC1OC(O)C(OC2OC(C(=O)O)C(O)C(O)C2O)C(O)C1O` [GF (I), α-D-GlcA-(1→2)-L-Fuc] returned an inhibition at 4000 µg/mL in assay [1] of 81%. The “α-glucosidase IC50” value in assay [2] (GF (I) purified in Example 3, 6 two-fold dilutions, quadruplicate) turned out to be 20.4 mg/mL. With `OC1OC[C@@H](O[C@@H]2OC[C@@H](O)[C@H](O)[C@H]2O)[C@H](O)[C@H]1O` (stereo partly shown) [X2, xylobiose], the “α-glucosidase inhibitory activity (% inhibition)” value in assay [2] was determined as 10.15%.

In the case of `O=C(O)[C@H]1OC(O)[C@H](O)[C@@H](O)[C@@H]1O` (stereo partly shown) [glucuronic acid], the “α-glucosidase inhibitory activity (% inhibition)” value in assay [2] turned out to be 8%.
